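Step 1: Grow cells in 96-well plates. Step 2: Expose to compound for 48 hours at 5 concentrations. Step 3: Interpolate endpoints linearly; if unreached, use highest concentration. GI50: concentration for 50% inhibition of growth.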 Calls of active or inactive are those of the source. No stated cut-off is given here; in the data, active = GI50 up to about 1.1 µM and inactive = higher.
Key:
Test in all cases: NCI anticancer screen, dose series, 48 h
[1] = test system: 786-0
[2] = test system: A498
[3] = test system: A549
[4] = test system: ACHN
[5] = test system: BT-549
[6] = test system: CAKI-1
[7] = test system: CCRF-CEM
[8] = test system: COLO 205
[9] = test system: DU-145
[10] = test system: EKVX
[11] = test system: HCC 2998
[12] = test system: HCT-116
[13] = test system: HCT-15
[14] = test system: HL-60
[15] = test system: HOP-62
[16] = test system: HOP-92
[17] = test system: HT-29
[18] = test system: Hs-578T
[19] = test system: IGROV-1
[20] = test system: K562
[21] = test system: KM12
[22] = test system: LOX IMVI
[23] = test system: M14
[24] = test system: MCF7
[25] = test system: MDA-MB-231
[26] = test system: MDA-MB-435
[27] = test system: MDA-N
[28] = test system: MOLT-4
[29] = test system: NCI-H226
[30] = test system: NCI-H23
[31] = test system: NCI-H460
[32] = test system: NCI-H522
[33] = test system: NCI/ADR-RES
[34] = test system: OVCAR-3
[35] = test system: OVCAR-4
[36] = test system: OVCAR-5
[37] = test system: OVCAR-8
[38] = test system: PC-3
[39] = test system: RPMI-8226
[40] = test system: RXF 393
[41] = test system: SF-268
[42] = test system: SF-295
[43] = test system: SF-539
[44] = test system: SK-MEL-28
[45] = test system: SK-MEL-2
[46] = test system: SK-MEL-5
[47] = test system: SK-OV-3
[48] = test system: SN12C
[49] = test system: SNB-19
[50] = test system: SNB-75
[51] = test system: SW-620
[52] = test system: T47D
[53] = test system: TK-10
[54] = test system: U-251
[55] = test system: UACC-257
[56] = test system: UACC-62
[57] = test system: UO-31
[58] = test system: Malme-3M

For `O=C1c2ccccc2/C(=N\c2ccc3ccccc3c2)C1(C1=C(c2ccccc2)/C(=N/c2ccc3ccccc3c2)c2ccccc21)c1ccccc1` (configuration not stated), the GI50 [1] was 4.8 µM (inactive), the GI50 [2] was > 10 µM (inactive) and the GI50 [3] was 11.1 µM (inactive). For the same compound, the GI50 [4] was 2.53 µM (inactive), the GI50 [5] was 5.62 µM (inactive) and the GI50 [6] was 7.53 µM (inactive). For the same compound, the GI50 [7] was 11.2 µM (inactive), the GI50 [8] was 6.34 µM (inactive) and the GI50 [9] was 5.57 µM (inactive). For the same compound, the GI50 [10] was 28.8 µM (inactive), the GI50 [11] was 11.5 µM (inactive) and the GI50 [12] was 3.85 µM (inactive). The GI50 [13] was 2.55 µM, the GI50 [14] was 4.5 µM (inactive) and the GI50 [15] was 12.5 µM (inactive). For the same compound, the GI50 [16] was > 100 µM (inactive), the GI50 [17] was 3.48 µM (inactive) and the GI50 [18] was 23.2 µM (inactive). For the same compound, the GI50 [19] was 6.34 µM (inactive), the GI50 [20] was 4.22 µM (inactive) and the GI50 [21] was 4.14 µM (inactive). The GI50 [22] was 4.01 µM (inactive), the GI50 [23] was 4.02 µM (inactive) and the GI50 [24] was 4.05 µM (inactive). For the same compound, the GI50 [25] was 15.3 µM (inactive), the GI50 [26] was 3.33 µM (inactive) and the GI50 [27] was 3.89 µM (inactive). For the same compound, the GI50 [28] was 2.58 µM (inactive), the GI50 [29] was 7.21 µM (inactive) and the GI50 [30] was 4.09 µM (inactive). The GI50 [31] was 3.32 µM (inactive), the GI50 [32] was 5.4 µM (inactive) and the GI50 [33] was 6.01 µM (inactive). The GI50 [34] was 73.3 µM (inactive), the GI50 [35] was 5.37 µM (inactive) and the GI50 [36] was > 57.8 µM (inactive). The GI50 [37] was 6.89 µM (inactive), the GI50 [38] was 4.41 µM (inactive) and the GI50 [39] was 3.64 µM (inactive). For the same compound, the GI50 [40] was > 24 µM (inactive), the GI50 [41] was 4.16 µM (inactive) and the GI50 [42] was 10.9 µM (inactive). The GI50 [43] was 6.15 µM (inactive), the GI50 [44] was 6.27 µM (inactive) and the GI50 [45] was 11.9 µM (inactive). The GI50 [46] was 2.17 µM (inactive), the GI50 [47] was 22.1 µM (inactive) and the GI50 [48] was 9.48 µM (inactive). For the same compound, the GI50 [49] was 73.3 µM (inactive), the GI50 [50] was 7.67 µM (inactive) and the GI50 [51] was 36.6 µM (inactive). The GI50 [52] was 5.5 µM (inactive), the GI50 [53] was 45.5 µM (inactive) and the GI50 [54] was 9.75 µM (inactive). The GI50 [55] was 5.73 µM (inactive), the GI50 [56] was 5.15 µM (inactive) and the GI50 [57] was 4.65 µM (inactive).
In the case of `CCSc1n/c(=C\c2ccco2)c2nnnn12`, the GI50 [1] is reported as > 100 µM (inactive), the GI50 [2] is reported as > 100 µM (inactive) and the GI50 [3] is reported as > 100 µM (inactive). For the same compound, the GI50 [4] was > 100 µM (inactive), the GI50 [5] was > 100 µM (inactive) and the GI50 [6] was > 100 µM (inactive). The GI50 [7] was > 100 µM (inactive), the GI50 [8] was > 100 µM (inactive) and the GI50 [9] was > 100 µM (inactive). For the same compound, the GI50 [10] was > 100 µM (inactive), the GI50 [11] was > 100 µM (inactive) and the GI50 [12] was > 100 µM (inactive). The GI50 [13] was greater than 100 µM, the GI50 [15] was > 100 µM (inactive) and the GI50 [16] was > 100 µM (inactive). The GI50 [17] was > 100 µM (inactive), the GI50 [18] was > 100 µM (inactive) and the GI50 [19] was > 100 µM (inactive). For the same compound, the GI50 [21] was > 100 µM (inactive), the GI50 [22] was > 100 µM (inactive) and the GI50 [23] was > 100 µM (inactive). The GI50 [24] was > 100 µM (inactive), the GI50 [25] was > 100 µM (inactive) and the GI50 [26] was > 100 µM (inactive). For the same compound, the GI50 [27] was > 100 µM (inactive), the GI50 [28] was > 100 µM (inactive) and the GI50 [58] was > 100 µM (inactive). For the same compound, the GI50 [29] was > 100 µM (inactive), the GI50 [30] was > 100 µM (inactive) and the GI50 [32] was > 100 µM (inactive). The GI50 [33] was > 100 µM (inactive), the GI50 [34] was > 100 µM (inactive) and the GI50 [35] was > 100 µM (inactive). The GI50 [36] was > 100 µM (inactive), the GI50 [37] was > 100 µM (inactive) and the GI50 [38] was > 100 µM (inactive). The GI50 [39] was > 100 µM (inactive), the GI50 [40] was > 100 µM (inactive) and the GI50 [41] was > 100 µM (inactive). For the same compound, the GI50 [42] was > 100 µM (inactive), the GI50 [43] was > 100 µM (inactive) and the GI50 [44] was > 100 µM (inactive). The GI50 [45] was > 100 µM (inactive), the GI50 [46] was > 100 µM (inactive) and the GI50 [47] was > 100 µM (inactive). For the same compound, the GI50 [48] was > 100 µM (inactive), the GI50 [49] was > 100 µM (inactive) and the GI50 [50] was > 100 µM (inactive). The GI50 [51] was > 100 µM (inactive), the GI50 [52] was > 100 µM (inactive) and the GI50 [53] was > 100 µM (inactive). For the same compound, the GI50 [54] was > 100 µM (inactive), the GI50 [55] was > 100 µM (inactive) and the GI50 [56] was > 100 µM (inactive). The GI50 [57] was > 100 µM (inactive).
